Reference: patent publication US20110190125A1, “2-(BENZYLSULFONYL)OXAZOLE DERIVATIVES, CHIRAL 2-(BENZYLSULFINYL)OXAZOLE DERIVATIVES” (BAYER CROPSCIENCE AG, priority 2008, published 2011)

Key:
Type in all cases: in vivo
[1] = tested on: Veronica persica; experiment: Pre-emergence herbicidal effect (greenhouse pot test); details: pre-emergence method, application rate of 0.32 kg and less of active substance per hectare, scored visually after about 3 weeks
Description: (§1) Seeds of monocotyledonous or dicotyledonous weed plants or crop plants are placed in sandy loam in wood-fiber pots and covered with soil. The compounds according to the invention, formulated in the form of wettable powders (WP), are then applied as aqueous suspension at a water application rate of 600 I/ha (converted) with the addition of 0.2% of wetting agent to the surface of the covering soil.
(§2) After the treatment, the pots are placed in a greenhouse and kept under good growth conditions for the test plants. After about 3 weeks, the effect of the preparations is scored visually in comparison with untreated controls (herbicidal effect in percent (%): 100% activity=the plants have died, 0% activity=like control plants).

[2] = tested on: Echinochloa crus galli; experiment: as above; details: pre-emergence method, application rate of 0.32 kg and less of active substance per hectare, scored visually after about 3 weeks
Description: as §1, §2

[3] = tested on: Lolium multiflorum; experiment: as above; details: pre-emergence method, application rate of 0.32 kg and less of active substance per hectare, scored visually after about 3 weeks
Description: as §1, §2

[4] = tested on: Alopecurus myosuroides; experiment: as above; details: pre-emergence method, application rate of 0.32 kg and less of active substance per hectare, scored visually after about 3 weeks
Description: as §1, §2

[5] = tested on: Echinochloa crus galli; experiment: Post-emergence herbicidal effect (greenhouse pot test); details: post-emergence method, application rate of 0.32 kg and less of active substance per hectare, rated visually after about 3 weeks
Description: (§3) Seeds of monocotyledonous and dicotyledonous weed and crop plants are placed in sandy loam in wood-fiber pots, covered with soil and cultivated in a greenhouse under good growth conditions. 2 to 3 weeks after sowing, the test plants are treated at the one-leaf stage. The compounds according to the invention, formulated in the form of wettable powders (WP), are then sprayed as aqueous suspension at a water application rate of 600 I/ha (converted) with the addition of 0.2% of wetting agent onto the green parts of the plants. After the test plants have been kept in the greenhouse under optimum growth conditions for about 3 weeks, the activity of the preparations is rated visually in comparison to untreated controls (herbicidal activity in percent (%): 100% activity=the plants have died, 0% activity=like control plants).

[6] = tested on: Lolium multiflorum; experiment: as above; details: post-emergence method, application rate of 0.32 kg and less of active substance per hectare, rated visually after about 3 weeks
Description: as §3

[O-][S+](Cc1c(Cl)cccc1Cl)c1ncco1 (racemic) [compound 44, 2-[(2,6-dichlorobenzyl)sulfinyl]-1,3-oxazole]
very good herbicidal activity: herbicidal activity against Veronica persica [1] | herbicidal activity against Echinochloa crus galli [2] | herbicidal activity against Lolium multiflorum [3] | herbicidal activity against Alopecurus myosuroides [4] | herbicidal activity against Echinochloa crus galli [5] | herbicidal activity against Lolium multiflorum [6]

[O-][S@@+](Cc1c(Cl)cccc1Cl)c1ncco1 [compound 2517]
very good herbicidal activity: herbicidal activity against Veronica persica [1] | herbicidal activity against Echinochloa crus galli [2] | herbicidal activity against Lolium multiflorum [3] | herbicidal activity against Alopecurus myosuroides [4] | herbicidal activity against Echinochloa crus galli [5] | herbicidal activity against Lolium multiflorum [6]

[O-][S+](Cc1c(F)cccc1F)c1ncco1 (stereo not drawn) [compound No. 11, 2-[(2,6-Difluorobenzyl)sulfinyl]-1,3-oxazole]
very good herbicidal activity: herbicidal activity against Veronica persica [1] | herbicidal activity against Echinochloa crus galli [2] | herbicidal activity against Lolium multiflorum [3] | herbicidal activity against Alopecurus myosuroides [4]

Cc1ccc(F)c(C[S+]([O-])c2ncco2)c1F (stereo not drawn) [compound No. 14, 2-[(2,6-Difluoro-3-methylbenzyl)sulfinyl]-1,3-oxazole]
very good herbicidal activity: herbicidal activity against Veronica persica [1] | herbicidal activity against Echinochloa crus galli [2] | herbicidal activity against Lolium multiflorum [3] | herbicidal activity against Alopecurus myosuroides [4]

[O-][S+](Cc1c(Cl)ccc(Cl)c1Cl)c1ncco1 (stereo not drawn) [compound No. 65, 2-[(2,3,6-Trichlorobenzyl)sulfinyl]-1,3-oxazole]
very good herbicidal activity: herbicidal activity against Veronica persica [1] | herbicidal activity against Echinochloa crus galli [2] | herbicidal activity against Lolium multiflorum [3] | herbicidal activity against Alopecurus myosuroides [4] | herbicidal activity against Echinochloa crus galli [5] | herbicidal activity against Lolium multiflorum [6]

O=S(=O)(Cc1c(Cl)ccc(Cl)c1Cl)c1ncco1 [compound No. 66, 2-[(2,3,6-Trichlorobenzyl)sulfonyl]-1,3-oxazole]
very good herbicidal activity: herbicidal activity against Veronica persica [1] | herbicidal activity against Echinochloa crus galli [2] | herbicidal activity against Lolium multiflorum [3] | herbicidal activity against Alopecurus myosuroides [4]

Cc1ccc(C)c(C[S+]([O-])c2ncco2)c1 (stereo not drawn) [compound No. 131, 2-[(2,5-Dimethylbenzyl)sulfinyl]-1,3-oxazole]
very good herbicidal activity: herbicidal activity against Veronica persica [1] | herbicidal activity against Echinochloa crus galli [2] | herbicidal activity against Lolium multiflorum [3] | herbicidal activity against Alopecurus myosuroides [4] | herbicidal activity against Echinochloa crus galli [5] | herbicidal activity against Lolium multiflorum [6]

[O-][S+](Cc1c(F)ccc(F)c1Cl)c1ncco1 (stereo not drawn) [compound No. 203, 2-[(2-Chloro-3,6-difluorobenzyl)sulfinyl]-1,3-oxazole]
very good herbicidal activity: herbicidal activity against Veronica persica [1] | herbicidal activity against Echinochloa crus galli [2] | herbicidal activity against Lolium multiflorum [3] | herbicidal activity against Alopecurus myosuroides [4] | herbicidal activity against Echinochloa crus galli [5] | herbicidal activity against Lolium multiflorum [6]
